In patent US12594248B2, “Stress management in human subjects in need thereof” (YEDA RESEARCH AND DEVELOPMENT CO. LTD., priority 2020, dated 2026):
Blank lines part the entries; values can stand above or below the compound they belong to.

Assays:
male subjects [1] = assay: Subjective stress level reports under a lecture stressor, Example 1; assay type: in vivo, human; conditions: scale 0-10, FIG. 1
Method: For experiments 0.083M of Hexadecanal (HEX) dissolved in propylene glycol was used. Heating it for a few minutes eases the process (37° C. is sufficient). The mixture was aliquoted into daily portions, such that we thawed a daily serving prior to experiments. Participants were exposed to 100 ul of 0.083M HEX in 10 consecutive sniffs from a jar, and then taped a band aid with 30 ul on the upper lip. The band aid stayed to assure exposure throughout the experiment. Since propylene glycol has an odor, we used a masking odor.
• 30 male subjects, 15 using Olfactory Blue (OB—Hexadecanal) and 15 with placebo. […]
• Subjects—men only [mean age: 24.97 (SD=1.92)]. • An isolated office space (to avoid subject distraction) is prepared with a table and chair. • The computer, Modify standalone and the video recording are positioned and prepared. […] End of experiment • Experimenter debriefs subject—asks for general comments and feeling • Subjective stress level • End of test Measurements The following physiological measurements are recorded: 1. […] The following psychological/subjective measurements are recorded: 2. Memory test—the ability to remember a series of words seen one after the other and after conducting several simple mathematical tasks; scored by counting number of words correctly remembered. […] Subjective stress level—the stress level the subject feels at that moment; recorded on the computer. […]

male subjects [2] = assay: Stroop test (attention, cognitive performance), Example 1; assay type: in vivo, human; conditions: FIG. 2
Method: (§1) • 30 male subjects, 15 using Olfactory Blue (OB—Hexadecanal) and 15 with placebo. […] Equipment • Computer/laptop with test script and cognitive tests • HR wrist monitor and Central unit • Video camera • 2×50 ml identical bottles—one with OB (solvent+Hexadecanal) and one only with dipropylene glycol (DPG) Goals and KPIs.
• Subjects—men only [mean age: 24.97 (SD=1.92)]. • An isolated office space (to avoid subject distraction) is prepared with a table and chair. • The computer, Modify standalone and the video recording are positioned and prepared. Test Running • Subject is introduced and asked to take place in front of computer • Experimenter briefs the subject on the test procedure in general • Subject fills in a consent form (including GDPR consent) and signs the receipt for the money (see form in annex) • Subject fills in personal data on the computer • Experimenter presents the scent bottle (OB or Placebo) given to them by an assistant (who records which bottle has been given) to the subject to smell five sniffs within one minute (2% in the bottle). • Subject is asked about their subjective stress level on a scale between 0 (no stress at all) to 10 (extreme stress)—questionnaire on the computer • Experimenter completes the briefing and introduce 3 assignments to the participants: a memory task, a Stroop task and the stress manipulation—subject will have to give a 5 min lecture to an audience on one of three given topics—stressor. • Subject starts the experiment by following instructions on the computer: 1. […] End of experiment • Experimenter debriefs subject—asks for general comments and feeling • Subjective stress level • End of test Measurements The following physiological measurements are recorded: 1. […] The following psychological/subjective measurements are recorded: 2. Memory test—the ability to remember a series of words seen one after the other and after conducting several simple mathematical tasks; scored by counting number of words correctly remembered. […] Subjective stress level—the stress level the subject feels at that moment; recorded on the computer.

male subjects [3] = assay: Memory test (free recall), Example 1; assay type: in vivo, human; conditions: FIG. 3
Method: as §1
• Subjects—men only [mean age: 24.97 (SD=1.92)]. • An isolated office space (to avoid subject distraction) is prepared with a table and chair. • The computer, Modify standalone and the video recording are positioned and prepared. […] End of experiment • Experimenter debriefs subject—asks for general comments and feeling • Subjective stress level • End of test Measurements The following physiological measurements are recorded: 1. […] The following psychological/subjective measurements are recorded: 2. Memory test—the ability to remember a series of words seen one after the other and after conducting several simple mathematical tasks; scored by counting number of words correctly remembered. […] Subjective stress level—the stress level the subject feels at that moment; recorded on the computer.

[4] = system: men and women participants; assay: Subjective stress level reports, men and women, Example 2; assay type: in vivo, human; conditions: two-way ANOVA, gender and fragrance condition; F(1,56)=5.1, p=0.03; no interaction; HEX vs PLACEBO; FIG. 4
Method: (§2) Sixty-four participants (35 women) with an average age of 27.34 (SD 4.65), half participated in the HEX group and the other half in the PLACEBO group. The study was conducted in Ra'anana, Israel in a rented office using a laptop computer.
(§3) Participants came in separately into the Ra'anana office, a research assistant (RA) welcomed them. After a short brief, participants were introduced with a bottle of liquid and were required to smell the bottle for 1 minute (with the instruction to breath normally). After being exposed to the smell, the RA explained about the three tasks (memory, attention, public speaking—the stressor). Participants reported their stress level before and after each assignment (7 times). Just before the last task, participants were informed that this task was canceled and then were asked to report their stress level for the last time.
The first stress report was given pre-manipulation; therefore, it may shed light upon the general stress level of the participants. Mean score for first stress report was 3.32 (SD 1.68) for men and 2.59 (SD 1.76) for women.
A two-way ANOVA was conducted with average stress (measures 2-6) as a dependent variable and gender and fragrance condition as the independent variables. […] Main effect for fragrance was also significant, F(1,56)=5.1, p=0.03. No interaction was found (F<0.1). […]

[5] = system: men and women participants; assay: Average heart rate (HR) along the experiment, Example 2; assay type: in vivo, human; conditions: men and women together; FIG. 5, p<0.0001
Method: as §2, §3

[6] = system: men and women participants; assay: Memory test (free recall), Example 2; assay type: in vivo, human; conditions: HEX vs placebo group
Method: as §2, §3

[7] = system: men and women participants; assay: Attention test (Stroop test), Example 2; assay type: in vivo, human; conditions: HEX vs placebo group
Method: as §2, §3

[8] = system: mouse OR37 receptor subtype B; conditions: Klein et al [15]; cited from earlier work
[9] = system: mouse OR37 receptor subtype C; conditions: Klein et al [15]; cited from earlier work
[10] = system: mouse OR37 receptor subtype A; conditions: Klein et al [15]; cited from earlier work

Stroop test number of errors, blue vs placebo (male subjects [2]): No differences
Stroop test reaction time, blue vs placebo (male subjects [2]): No differences
cognitive performance relative to placebo (male subjects [2]; as evidenced by the Stroop test): does not affect cognitive performance
free recall assignment, difference between conditions (male subjects [3]): no differences
memory (free recall), difference between groups [6]: did not differ
attention (Stroop test), difference between groups [7]: did not differ
SMILES: CCCCCCCCCCCCCCCC=O [HEX, Hexadecanal]
subjective stress report, difference between groups (male subjects [1]; stress0 (baseline) and stress4 (end, after being told there will be no lecture)): no difference
subjective stress report vs Placebo group (male subjects [1]; stress1, stress2, stress3 (after assignments and smelling, after memory test, after Stroop test), 15 vs 15 men, p<0.01): significantly lower degree
average stress (measures 2-6), main effect for fragrance [4]: significant
average HR vs placebo group [5]: lower
activation of OR37 subtype B [8]: activated

SMILES: CCCCCCCCCCCCCCCCC=O [heptadecanal]
activation of OR37 subtype C [9]: activated

SMILES: CCCCCCCCCCCCCCC=O [pentadecanal]
activation of OR37 subtype A [10]: activated
